The text below walks through data of patent US10604552B2, “Generation of novel metabolite-responsive transcription regulator biosensors” (NORTHWESTERN UNIVERSITY, priority 2016, dated 2020).

The structures appear in SMILES notation.

For this data set, the system named is TOP10 Escherichia coli cells. The class given is cell-based. The settings on record: 100 mM maltose; SP biosensor with No Sites or Go66 reporter. How it is done: All experiments were conducted in TOP10 Escherichia coli cells (F-mcrA Δ(mrr-hsdRMS-mcrBC) φ80lacZAM15 ΔlacX74 nupG recAl araD139 Δ(ara-leu)7697 galE15 galK16 rpsL(Str^R) endA1 λ^−) (Life Technologies). Cells were maintained in Lysogeny Broth (LB) Lennox formulation (10 g/L of tryptone, 5 g/L of yeast extract, 5 g/L of NaCl) supplemented with appropriate antibiotics (Ampicillin 100 μg/mL or Kanamycin 50 μg/mL). All experimental analysis was conducted in M9 minimal media (1×M9 salts, 0.2% Casamino Acids, 2 mM MgSO^4, 0.1 mM CaCl^2, 1 mM Thiamine HCl) containing glycerol (0.4%) as the primary carbon source. 1% arabinose and variable amounts of maltose monohydrate and isopropyl β-D-1-thiogalactopyranoside (IPTG) were added as indicated. M9 medium containing both Ampicillin and Kanamycin was used to maintain the strains that contained both a reporter plasmid and a biosensor plasmid.
Cultures were inoculated from single colonies into 2 mL of M9 media and grown overnight to stationary phase. Overnight cultures were diluted 1:20 and grown into exponential phase (OD600˜0.5). […] Plates with lids were incubated and shaken in a continuous double orbital pattern at 548 cpm (2 mm) inside a BioTek Synergy H1 plate reader for 10 h with GFP, mCherry, and OD600 measurements taken every 15 min. […]

Take `OC[C@H]1O[C@H](O[C@H]2[C@H](O)[C@@H](O)C(O)O[C@@H]2CO)[C@H](O)[C@@H](O)[C@@H]1O` (mixture of isomers) [maltose]: the “impact on cell growth” value is “did not substantially impact cell growth”.
